Values of other authors in patent US20160324770A1, “INTRATHECAL ADMINISTRATION, PREFERABLY INTRAVENTRICULAR, OF MTOR INHIBITORS FOR THE THERAPY OF SOME NEURODEGENERATIVE, NEUROINFLAMMATORY AND NEURO-ONCOLOGIC DISEASES” (priority 2012, published 2016).

Conditions: cited from earlier work

## CO[C@H]1C[C@@H]2CC[C@@H](C)[C@@](O)(O2)C(=O)C(=O)N2CCCC[C@H]2C(=O)O[C@H]([C@H](C)C[C@@H]2CC[C@@H](O)[C@H](OC)C2)CC(=O)[C@H](C)/C=C(\C)[C@@H](O)[C@@H](OC)C(=O)[C@H](C)C[C@H](C)/C=C/C=C/C=C/1C [rapamycin]
According to the FDA
  half-life: 62 h
  half-life compared to everolimus: more than double that time
